Measured values reported in US20200060276A1, “THIAZOLE COMPOUND AND HERBICIDE” (OAT Agrio Co., Ltd., priority 2017, published 2020).

Tests used:
Format in all cases: in vivo
[1] = tested on: Echinochloa crus-galli (L.) P. Beauv. var. formosensis Ohwi; assay: Test for Herbicidal Effect in Flooding Treatment (#1), ECHDG; conditions: flooding treatment at seeding, dose 2 kg/ha, visual observation on day 21
How it was run: (§1)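 Visual scores from 0 (<10% inhibition) to 5 (≥90% or complete withering) were taken 21 days after treatment of glasshouse-grown plants. Seeds were sown in soil flooded for 24 h beforehand, and compound was applied dropwise onto the surface at 2 kg/ha as an acetone solution diluted in water with Tween 80.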

Monochoria vaginalis = assay: Test for Herbicidal Effect in Flooding Treatment (#1), MONVA; conditions: flooding treatment at seeding, dose 2 kg/ha, visual observation on day 21
How it was run: as §1

Scirpus juncoides = assay: Test for Herbicidal Effect in Flooding Treatment (#1), SCIJU; conditions: flooding treatment at seeding, dose 2 kg/ha, visual observation on day 21
How it was run: as §1

Cyperus microiria = assay: Test for Herbicidal Effect in Flooding Treatment (#1), CYMIC; conditions: flooding treatment at seeding, dose 2 kg/ha, visual observation on day 21
How it was run: as §1

[2] = tested on: Echinochloa crus-galli (L.) P. Beauv. var. formosensis Ohwi; assay: Test for Herbicidal Effect in Flooding Treatment (#2), ECHDG at 2-2.5 leaf stage; conditions: flooding treatment at 2-2.5 leaf stage, dose 0.2 kg/ha, visual observation on day 21
How it was run: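 Flooded muddy soil was seeded with the weed, and at 2–2.5 leaf stage compound in acetone/Tween 80 water was dropped on the water surface at 0.2 kg/ha. Plants were kept in a glasshouse and scored visually on day 21 from 0 (<10% growth inhibition) to 5 (≥90% or complete withering).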

Compound	ECHDG #1 herbicidal effect (growth inhibition grade) [1]	MONVA #1 herbicidal effect (growth inhibition grade) (Monochoria vaginalis)	SCIJU #1 herbicidal effect (growth inhibition grade) (Scirpus juncoides)	CYMIC #1 herbicidal effect (growth inhibition grade) (Cyperus microiria)	ECHDG (2-2.5L) #2 herbicidal effect (growth inhibition grade) [2]
O=S(=O)(Cc1cc(Br)ccc1OC(F)F)c1ncc(Cl)s1 [Compound 1C-40]	5 (Growth inhibition effect is equal to or greater than 90%, or complete withering is achieved)	5 (Growth inhibition effect is equal to or greater than 90%, or complete withering is achieved)	5 (Growth inhibition effect is equal to or greater than 90%, or complete withering is achieved)	5 (Growth inhibition effect is equal to or greater than 90%, or complete withering is achieved)	5 (Growth inhibition effect is equal to or greater than 90%, or complete withering is achieved)
O=S(=O)(Cc1cc(Br)ccc1OC(F)(F)F)c1ncc(Cl)s1 [Compound 1C-47]	5 (Growth inhibition effect is equal to or greater than 90%, or complete withering is achieved)	5 (Growth inhibition effect is equal to or greater than 90%, or complete withering is achieved)	5 (Growth inhibition effect is equal to or greater than 90%, or complete withering is achieved)	5 (Growth inhibition effect is equal to or greater than 90%, or complete withering is achieved)	4 (Growth inhibition effect is equal to or greater than 70%, and less than 90%)
COc1cccc(CS(=O)(=O)c2ncc(Cl)s2)c1 [Compound 1C-65]	5 (Growth inhibition effect is equal to or greater than 90%, or complete withering is achieved)	5 (Growth inhibition effect is equal to or greater than 90%, or complete withering is achieved)	5 (Growth inhibition effect is equal to or greater than 90%, or complete withering is achieved)	5 (Growth inhibition effect is equal to or greater than 90%, or complete withering is achieved)	5 (Growth inhibition effect is equal to or greater than 90%, or complete withering is achieved)
COc1cccc(CS(=O)(=O)c2ncc(Cl)s2)c1Cl [Compound 1C-66]	5 (Growth inhibition effect is equal to or greater than 90%, or complete withering is achieved)	5 (Growth inhibition effect is equal to or greater than 90%, or complete withering is achieved)	5 (Growth inhibition effect is equal to or greater than 90%, or complete withering is achieved)	5 (Growth inhibition effect is equal to or greater than 90%, or complete withering is achieved)	4 (Growth inhibition effect is equal to or greater than 70%, and less than 90%)
COc1ccc(F)c(CS(=O)(=O)c2ncc(Cl)s2)c1 [Compound 1C-69]	5 (Growth inhibition effect is equal to or greater than 90%, or complete withering is achieved)	5 (Growth inhibition effect is equal to or greater than 90%, or complete withering is achieved)	5 (Growth inhibition effect is equal to or greater than 90%, or complete withering is achieved)	5 (Growth inhibition effect is equal to or greater than 90%, or complete withering is achieved)	4 (Growth inhibition effect is equal to or greater than 70%, and less than 90%)
COc1ccc(Cl)c(CS(=O)(=O)c2ncc(Cl)s2)c1 [Compound 1C-70]	5 (Growth inhibition effect is equal to or greater than 90%, or complete withering is achieved)	5 (Growth inhibition effect is equal to or greater than 90%, or complete withering is achieved)	5 (Growth inhibition effect is equal to or greater than 90%, or complete withering is achieved)	5 (Growth inhibition effect is equal to or greater than 90%, or complete withering is achieved)	4 (Growth inhibition effect is equal to or greater than 70%, and less than 90%)
CCOc1cccc(CS(=O)(=O)c2ncc(Cl)s2)c1F [Compound 1C-75]	5 (Growth inhibition effect is equal to or greater than 90%, or complete withering is achieved)	5 (Growth inhibition effect is equal to or greater than 90%, or complete withering is achieved)	5 (Growth inhibition effect is equal to or greater than 90%, or complete withering is achieved)	5 (Growth inhibition effect is equal to or greater than 90%, or complete withering is achieved)	4 (Growth inhibition effect is equal to or greater than 70%, and less than 90%)
CCOc1cc(CS(=O)(=O)c2ncc(Cl)s2)ccc1Cl [Compound 1C-77]	5 (Growth inhibition effect is equal to or greater than 90%, or complete withering is achieved)	5 (Growth inhibition effect is equal to or greater than 90%, or complete withering is achieved)	5 (Growth inhibition effect is equal to or greater than 90%, or complete withering is achieved)	5 (Growth inhibition effect is equal to or greater than 90%, or complete withering is achieved)	3 (Growth inhibition effect equal to or greater than 50%, and less than 70%)
CCOc1cc(Cl)cc(CS(=O)(=O)c2ncc(Cl)s2)c1 [Compound 1C-78]	5 (Growth inhibition effect is equal to or greater than 90%, or complete withering is achieved)	5 (Growth inhibition effect is equal to or greater than 90%, or complete withering is achieved)	5 (Growth inhibition effect is equal to or greater than 90%, or complete withering is achieved)	5 (Growth inhibition effect is equal to or greater than 90%, or complete withering is achieved)	5 (Growth inhibition effect is equal to or greater than 90%, or complete withering is achieved)
CCOc1cc(CS(=O)(=O)c2ncc(Cl)s2)cc(C(F)(F)F)c1 [Compound 1C-79]	5 (Growth inhibition effect is equal to or greater than 90%, or complete withering is achieved)	5 (Growth inhibition effect is equal to or greater than 90%, or complete withering is achieved)	5 (Growth inhibition effect is equal to or greater than 90%, or complete withering is achieved)	5 (Growth inhibition effect is equal to or greater than 90%, or complete withering is achieved)	2 (Growth inhibition effect is equal to or greater than 30%, and less than 50%)
CCOc1c(F)ccc(CS(=O)(=O)c2ncc(Cl)s2)c1F [Compound 1C-81]	5 (Growth inhibition effect is equal to or greater than 90%, or complete withering is achieved)	5 (Growth inhibition effect is equal to or greater than 90%, or complete withering is achieved)	5 (Growth inhibition effect is equal to or greater than 90%, or complete withering is achieved)	5 (Growth inhibition effect is equal to or greater than 90%, or complete withering is achieved)	5 (Growth inhibition effect is equal to or greater than 90%, or complete withering is achieved)
CCOc1ccc(F)c(CS(=O)(=O)c2ncc(Cl)s2)c1F [Compound 1C-82]	5 (Growth inhibition effect is equal to or greater than 90%, or complete withering is achieved)	5 (Growth inhibition effect is equal to or greater than 90%, or complete withering is achieved)	5 (Growth inhibition effect is equal to or greater than 90%, or complete withering is achieved)	5 (Growth inhibition effect is equal to or greater than 90%, or complete withering is achieved)	5 (Growth inhibition effect is equal to or greater than 90%, or complete withering is achieved)
CCOc1cc(CS(=O)(=O)c2ncc(Cl)s2)cc(F)c1F [Compound 1C-83]	5 (Growth inhibition effect is equal to or greater than 90%, or complete withering is achieved)	5 (Growth inhibition effect is equal to or greater than 90%, or complete withering is achieved)	5 (Growth inhibition effect is equal to or greater than 90%, or complete withering is achieved)	5 (Growth inhibition effect is equal to or greater than 90%, or complete withering is achieved)	4 (Growth inhibition effect is equal to or greater than 70%, and less than 90%)
